In ChEMBL document CHEMBL1122585, “Synthesis of a novel class of heteroaromatic amino acids and their use in the preparation of analogues of luteinizing hormone-releasing hormone” (J Med Chem, 1984) one finds pKa and Potency data, which are given here for 13 molecules.

Series [1] can be described thus: Acid dissociation constant was determined. It is filed as ADME.
For a further series, the species on record is Rattus norvegicus. The series can be described thus: Antifertility effect in adult female rats by estrus suppression assay. The series is classed as functional.

Consider `NC(Cc1nc2ccccc2[nH]1)C(=O)O` (stereo not drawn), for which the pKa (usually the pH at which an ionisable group is half protonated) in series [1] came out at 4.7. The same measure, in the same setting: the result for `NC(Cc1nc2c([nH]1)CCCC2)C(=O)O` (stereo not drawn) reads 7.5.

Regarding `CC(C)C[C@H](NC(=O)[C@@H](Cc1nc2ccccc2o1)NC(=O)[C@H](Cc1ccc(O)cc1)NC(=O)[C@H](CO)NC(=O)[C@H](Cc1c[nH]c2ccccc12)NC(=O)[C@H](Cc1c[nH]cn1)NC(=O)[C@@H]1CCC(=O)N1)C(=O)N[C@@H](CCCN=C(N)N)C(=O)N1CCC[C@H]1C(=O)NCC(N)=O`, in the series listed under Rattus norvegicus, the Potency turned out to be 1.2. Molecule `CC(C)C[C@H](NC(=O)[C@@H](Cc1nc2cc(Cl)c(Cl)cc2[nH]1)NC(=O)[C@H](Cc1ccc(O)cc1)NC(=O)[C@H](CO)NC(=O)[C@H](Cc1c[nH]c2ccccc12)NC(=O)[C@H](Cc1c[nH]cn1)NC(=O)[C@@H]1CCC(=O)N1)C(=O)N[C@@H](CCCN=C(N)N)C(=O)N1CCC[C@H]1C(=O)NCC(N)=O` displayed a Potency in the series filed under Rattus norvegicus of 0.9. `NC(Cc1nc2cc(Cl)c(Cl)cc2[nH]1)C(=O)O` (stereo not drawn): the pKa in series [1] was 3.4. On the same count and under the same terms, in the case of `Cc1cc2nc(CC(N)C(=O)O)[nH]c2cc1C` (stereo not drawn) it was 5.4. As for `CCNC(=O)[C@@H]1CCCN1C(=O)[C@H](CCCN=C(N)N)NC(=O)[C@H](CC(C)C)NC(=O)[C@@H](Cc1nc2c(ccc3ccccc32)[nH]1)NC(=O)[C@H](Cc1ccc(O)cc1)NC(=O)[C@H](CO)NC(=O)[C@H](Cc1c[nH]c2ccccc12)NC(=O)[C@H](Cc1c[nH]cn1)NC(=O)[C@@H]1CCC(=O)N1`, the Potency in the series filed under Rattus norvegicus was 0.8. Turning to `CCNC(=O)[C@@H]1CCCN1C(=O)[C@H](CCCN=C(N)N)NC(=O)[C@H](CC(C)C)NC(=O)[C@@H](Cc1nc2ccccc2[nH]1)NC(=O)[C@H](Cc1ccc(O)cc1)NC(=O)[C@H](CO)NC(=O)[C@H](Cc1c[nH]c2ccccc12)NC(=O)[C@H](Cc1c[nH]cn1)NC(=O)[C@@H]1CCC(=O)N1`, the Potency in the series filed under Rattus norvegicus is 1.

Turning to `CC(C)C[C@H](NC(=O)[C@@H](Cc1nc2ccccc2s1)NC(=O)[C@H](Cc1ccc(O)cc1)NC(=O)[C@H](CO)NC(=O)[C@H](Cc1c[nH]c2ccccc12)NC(=O)[C@H](Cc1c[nH]cn1)NC(=O)[C@@H]1CCC(=O)N1)C(=O)N[C@@H](CCCN=C(N)N)C(=O)N1CCC[C@H]1C(=O)NCC(N)=O`, the Potency in the series listed under Rattus norvegicus is 1. On to `CCNC(=O)[C@@H]1CCCN1C(=O)[C@H](CCCN=C(N)N)NC(=O)[C@H](CC(C)C)NC(=O)[C@@H](Cc1nc2c([nH]1)CCCC2)NC(=O)[C@H](Cc1ccc(O)cc1)NC(=O)[C@H](CO)NC(=O)[C@H](Cc1c[nH]c2ccccc12)NC(=O)[C@H](Cc1c[nH]cn1)NC(=O)[C@@H]1CCC(=O)N1`, for which, in the series filed under Rattus norvegicus, the Potency was determined as 1.4.

Regarding `CC(C)C[C@H](NC(=O)[C@@H](Cc1nc2ccccc2[nH]1)NC(=O)[C@H](Cc1ccc(O)cc1)NC(=O)[C@H](CO)NC(=O)[C@H](Cc1c[nH]c2ccccc12)NC(=O)[C@H](Cc1c[nH]cn1)NC(=O)[C@@H]1CCC(=O)N1)C(=O)N[C@@H](CCCN=C(N)N)C(=O)N1CCC[C@H]1C(=O)NCC(N)=O`, the Potency in the series listed under Rattus norvegicus stood at 0.3. Still for that read-out and setting: in the case of `Cc1cc2nc(C[C@@H](NC(=O)[C@H](Cc3ccc(O)cc3)NC(=O)[C@H](CO)NC(=O)[C@H](Cc3c[nH]c4ccccc34)NC(=O)[C@H](Cc3c[nH]cn3)NC(=O)[C@@H]3CCC(=O)N3)C(=O)N[C@@H](CC(C)C)C(=O)N[C@@H](CCCN=C(N)N)C(=O)N3CCC[C@H]3C(=O)NCC(N)=O)[nH]c2cc1C` it was 1.6; in that of `CC(C)C[C@H](NC(=O)[C@@H](Cc1nc2c([nH]1)CCCC2)NC(=O)[C@H](Cc1ccc(O)cc1)NC(=O)[C@H](CO)NC(=O)[C@H](Cc1c[nH]c2ccccc12)NC(=O)[C@H](Cc1c[nH]cn1)NC(=O)[C@@H]1CCC(=O)N1)C(=O)N[C@@H](CCCN=C(N)N)C(=O)N1CCC[C@H]1C(=O)NCC(N)=O`, 0.6.
